# Reference: patent US8633301B2, “Antitumor combinations containing antibodies recognizing specifically CD38 and vincristine” (Sanofi, priority 2008, dated 2014)
# “And” between values parts separate entries of the source, which are not always exact repeats. Identical values can stand only once. “Also recorded” adds a separate entry of the source.
# Columns and labels:
# [1] = Toxicity (body weight change, drug death) in DND-41 tumor-bearing SCID mice; type: in vivo
# [2] = tested on: human T-cell acute lymphoblastic leukemia (T-ALL) cell line, DND-41; test: Antitumor efficacy against advanced DND-41 tumors implanted in SCID mice; settings: for T-C (tumor growth delay): time to reach 750 mg; for TFS (tumor free survivors): end of study day 160
# Description: A product is considered to be active if log10 cell kill is greater than or equal to 0.7. A product is considered to be very active if log10 cell kill is greater than or equal to 2.8.
# The animals subjected to the experiment, generally mice, are subcutaneously grafted bilaterally with 30 to 60 mg of a tumor fragment on day 0. The animals bearing tumors are randomized based on their tumor size before being subjected to the various treatments and controls. Chemotherapy begins when tumors have reached a predetermined size after grafting, depending on the type of tumor, and the animals are observed every day. […] The groups are then weighed once or twice a week until the end of the trial.
# The tumors are measured 1 to 5 times a week, depending on the tumor doubling time, until the tumor reaches approximately 2 g, or until the animal dies (if this occurs before the tumor reaches 2 g). The animals are necropsied immediately after euthanasia or death.
# The selected tumor model was a transplantable human T-cell acute lymphoblastic leukemia (T-ALL) cell line, DND-41, implanted in SCID mice.
# Vincristine was formulated in 5% glucose in water.
# Tumor doubling time=3.4 days.
# murine CD38 = target: T1, murine CD38 (Mus musculus, UniProt P56528); test: Cross-reactivity of the antibody with murine CD38; type: binding
# T1 sequence (P56528 1-304): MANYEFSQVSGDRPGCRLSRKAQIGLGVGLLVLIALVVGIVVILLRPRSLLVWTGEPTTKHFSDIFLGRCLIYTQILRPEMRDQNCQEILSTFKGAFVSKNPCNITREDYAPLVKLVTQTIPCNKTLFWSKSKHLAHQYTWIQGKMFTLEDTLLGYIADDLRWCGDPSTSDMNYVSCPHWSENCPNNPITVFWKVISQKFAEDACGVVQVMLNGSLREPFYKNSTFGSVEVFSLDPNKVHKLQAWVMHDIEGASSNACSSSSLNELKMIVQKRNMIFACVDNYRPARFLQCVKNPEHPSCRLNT
# [3] = vincristine alone 0.3 mg/kg/inj (total 1.2) IV
# [4] = vincristine alone 0.5 mg/kg/inj (total 2.0) IV
# [5] = vincristine alone 0.8 mg/kg/inj (total 3.2) IV
# [6] = vincristine alone 0.3 mg/kg/inj IV
# [7] = vincristine alone 0.5 mg/kg/inj IV
# [8] = vincristine alone 0.8 mg/kg/inj IV
# [9] = hu38SB19 alone 40.0 mg/kg/inj (total 160.0) IV days 18, 21, 24, 27
# [10] = hu38SB19 alone 40.0 mg/kg/inj IV
molecule,measurement,setting,value
"CC[C@]1(O)C[C@H]2CN(CCc3c([nH]c4ccccc34)[C@@](C(=O)OC)(c3cc4c(cc3OC)N(C=O)[C@H]3[C@@](O)(C(=O)OC)[C@H](OC(C)=O)[C@]5(CC)C=CCN6CC[C@]43[C@@H]65)C2)C1 [vincristine, Vincristine]",BWC (body weight change) at nadir,[1]; [3],−0.4%
same,drug death,"[1]; vincristine alone 0.3 mg/kg/inj (total 1.2) IV days 18, 21, 24, 27",0/6
same,BWC (body weight change) at nadir,[1]; [4],−5.3%
same,drug death,"[1]; vincristine alone 0.5 mg/kg/inj (total 2.0) IV days 18, 21, 24, 27",0/6
same,BWC (body weight change) at nadir,[1]; [5],−10.4%
same,drug death,"[1]; vincristine alone 0.8 mg/kg/inj (total 3.2) IV days 18, 21, 24, 27",0/6
same,BWC (body weight change) at nadir,[1]; vincristine alone 1.3 mg/kg/inj (total 5.2) IV,−25.2%
same,drug death,"[1]; vincristine alone 1.3 mg/kg/inj (total 5.2) IV days 18, 21, 24, 27",0/6
same,comments (activity/toxicity rating),[1]; vincristine alone 1.3 mg/kg/inj IV,Toxic (−25% BWC)
same,body weight loss at nadir,"[1]; vincristine alone 1.3 mg/kg/injection, nadir on day 27",25.2%
same,highest nontoxic dose (HNTD),"[1]; vincristine alone IV days 18, 21, 24, 27, total injected dose 3.2 mg/kg",0.8 mg/kg/inj
same,log10 cell kill,[2]; [3],1.4
same,T-C (tumor growth delay),[2]; [3],15.6 days
same,comments (activity/toxicity rating),[2]; [6],remained active
same,TFS (tumor free survivors),[2]; [6],0/6
same,log10 cell kill,[2]; [4],3.8
same,T-C (tumor growth delay),[2]; [4],43.3 days
same,comments (activity/toxicity rating),[2]; [7],Highly active
same,TFS (tumor free survivors),[2]; [7],no TFS and 0/6
same,log10 cell kill,[2]; [5],4.4
same,T-C (tumor growth delay),[2]; [5],49.6 days
same,comments (activity/toxicity rating),[2]; [8],HNTD - Highly active
same,TFS (tumor free survivors),[2]; [8],no TFS and 0/6
"hu38SB19: humanized anti-CD38 monoclonal antibody 38SB19; VH SEQ ID NO: 66, VL SEQ ID NO: 62 or 64",tolerability / toxicity,[1]; hu38SB19 alone 40 mg/kg/inj,well tolerated
same,BWC (body weight change) at nadir,[1]; [9],−2.1%
same,drug death,[1]; [9],0/6
same,log10 cell kill,[2]; [9],0.5
same,T-C (tumor growth delay),[2]; [9],6.1 days
same,comments (activity/toxicity rating),[2]; [10],not active; also recorded: HDT- Inactive
same,TFS (tumor free survivors),[2]; [10],0/6
same,cross-reactivity with murine CD38,murine CD38,lack of cross-reactivity
